Reference: patent publication EP0417790B1, “S-triazolo[3,4-i]purine derivatives” (Kyowa Hakko Kogyo Co., Ltd., priority 1989, dated 1991)

Legend:
Format in all cases: in vivo
[1] = test system: Male ddy mice; experiment: Electroconvulsive shock (ECS)-induced amnesia, step through passive avoidance; details: mean ± S.E.M., control 70.9±13.5
Experimental: Male ddy mice (weighing 23 to 29 g) were used and each group consists of 14 to 15 animals. These tests were performed with a step through type passive avoidance apparatus. As experimental apparatus, two rooms (bright and dark) with automatic management system were used. An experimental apparatus is composed of a bright room equipped with 4W of fluorescent light (15 x 9 x 11 cm) and a dark room (15 x 14 x 18 cm), the two rooms are separated by a guillotine door of 3 x 3 cm. The floor of both rooms is stainless steal grid floor and the weak electric current can be send the grid floor of dark room. In the automatic management system, latency of acquisition trial and test trial are measured automatically by controlling with a controller (TK-402, by UNICOM, Japan).
The test compound was dissolved in saline and saline was used as a control. The test compound and the saline (control) were orally administered 60 minutes before the acquisition trial, respectively.
Acquisition trial for learning was performed as follows. […] As soon as the mouse entered the dark room, a scrambled foot-shock (0.18 mA) was delivered to the floor grid for 2 seconds. In the test trial, given 24 hours after the acquisition trial, the animal was again placed in the bright room and the response latency to enter the dark room was measured. The mice which required over 60 seconds to move from the bright room into the dark room were excluded from the test trial. Immediately after the acquisition trial, electric convulsive shock (ECS) (25 mA, 0.2 second, 2000 V) was loaded on mice. The test trial was performed 24 hours after the ECS treatment as follows. The mice received the acquisition trial were placed in the bright room and, latency from the door opening to the entrance of the whole body of animal into the dark room was measured. The maximum measurement time was 600 seconds and latency exceeding 600 seconds was recorded as 600 seconds.
Statistical significance between the control group and test compound treated group was judged by Man Whitney U-test.

[2] = test system: mice; experiment: Scopolamine-induced amnesia, step through passive avoidance; details: scopolamine 0.5 mg/kg i.p., mean ± S.E.M., controls 40.9±8.1 (Compound 41), 37.0±6.2 (Compound 51)
Experimental: Acquisition trial was performed in a manner similar to Experiment (f). Amnestic treatment was performed by intraperitoneal administration of scopolamine (0.5 mg/kg), 30 minutes prior to the acquisition trial. The test trial was performed 24 hours after the acquisition trial and its latency was determined as in Experiment (f).
Preparation of administrated test compound was performed in a manner similar to Experiment (f). Test compound and the saline were orally administered 60 minutes before the acquisition trial, respectively.

[3] = test system: male dd-mice; experiment: Acute toxicity; details: Minimum lethal dose, oral, mortality observed for seven days
Experimental: The compounds were orally administrated to male dd-mice weighing 20 ± 1 g. Minimum lethal dose (MLD) was determined by observing the mortality for seven days after the administration.

[4] = 0.625 mg/kg orally 60 minutes before acquisition trial
[5] = 2.5 mg/kg orally 60 minutes before acquisition trial
[6] = 10 mg/kg orally 60 minutes before acquisition trial
[7] = 40 mg/kg orally 60 minutes before acquisition trial

In the case of `CCCn1c(=O)n2c(=O)[nH]nc2c2c1ncn2C` [Compound 41, 9-Methyl-6-n-propyl-2,5,6,9-tetrahydro-3H-1,2,4-triazolo[3,4-i]purin-3,5-dione], the “Latency of test trial” value [1, 4] was 105.9 ± 44.0 s, the “Latency of test trial” value [1, 5] was 111.3 ± 20.1 s and the “Latency of test trial” value [1, 6] was 97.4 ± 38.7 s. The “Latency of test trial” value [1, 7] was 171.8 ± 43.1 s, the “Latency of test trial” value [2, 4] was 96.8 ± 21.5 s and the “Latency of test trial” value [2, 5] was 115.8 ± 26.6 s. The “Latency of test trial” value [2, 6] was 53.4 ± 8.9 s, the “Latency of test trial” value [2, 7] was 74.3 ± 18.8 s and the MLD [3] was >300 mg/kg.
